Measurements from US11970452B2, “Modulators of mas-related G-protein receptor X2 and related products and methods” (Escient Pharmaceuticals, Inc., priority 2020, dated 2024).

molecular target: T1, human MRGPRX2 (Homo sapiens, UniProt Q96LB1); test: MRGPRX2 activity: IP-One HTRF antagonist assay versus 0.3 uM Cortistatin 14; assay type: cell-based; settings: CHO cells expressing human MRGPRX2; IP-1 HTRF; versus 0.3 uM Cortistatin 14 agonist; read-out: MRGPR2 Antagonist Activity
T1 construct: expressed in transfected cells
T1 sequence (Q96LB1 1-330): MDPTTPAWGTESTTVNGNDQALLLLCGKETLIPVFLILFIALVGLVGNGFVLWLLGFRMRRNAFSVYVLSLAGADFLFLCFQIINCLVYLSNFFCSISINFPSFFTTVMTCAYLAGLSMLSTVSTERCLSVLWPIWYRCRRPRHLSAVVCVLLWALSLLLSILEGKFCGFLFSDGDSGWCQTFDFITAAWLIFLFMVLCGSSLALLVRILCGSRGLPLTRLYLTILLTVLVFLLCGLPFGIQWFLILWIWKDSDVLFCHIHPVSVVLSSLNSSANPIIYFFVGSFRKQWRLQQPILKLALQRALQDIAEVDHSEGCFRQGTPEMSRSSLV
Experimental: CHO cells stably transfected to express human MRGPRX2 were maintained in an incubator at 37° C. with 5% CO2 and grown in F12 (HAM) media with 10% fetal bovine serum (FBS), 1% Glutamax, 1% penicillin/streptomycin, 800 μg/mL Geneticin (G418), and 300 μg/mL Hygromycin B.
Cells were plated in a […] assay plate at 20,000 cells per well in 12 μL of Opti-MEM and kept in an incubator overnight. On the day of the assay, compounds solubilized at 10 mM in DMSO were added as a 10-point curve (30 uM final top concentration with 1:3 serial dilutions) using a Tecan D300E digital dispenser. Agonists were diluted in assay buffer (final concentrations of 5.7 mM Tris-HCl, 43 mM NaCl, 50 mM LiCl, pH=8) and 2 μL of the agonist Cortistatin 14 (CPC Scientific, catalog CORT-002) are added to each well. Final concentrations of agonists were 0.3 μM Cortistatin. Final concentrations of DMSO were kept consistent across the plate. Plates were incubated in the dark for 1 h at 37° C. and then for 1 h at room temperature. IP-1 standards and HTRF detection reagents were added according to the IP-One-Gq Kit purchased from Cisbio (part number 62IPAPEJ) and incubated in the dark for 1 h at room temperature. The plate was read on a Molecular Devices SpectraMax iD5 plate reader. The HTRF ratio was calculated from the raw data and graphed using GraphPad Prism to calculate an IC50 value for each compound.
(§1) The activity ranges are denoted as follows: “+++++” denotes antagonist activity <100 nM; “++++” denotes antagonist activity between 100 and 500 nM; “+++” denotes activity between 501 and 1000 nM; “++” denotes activity between 1001 and 2500 nM; and “+” denotes activity >2500 nM

SMILES	IC50 [nM]
O=C(N[C@H]1CC[C@@H](Nc2cc(C(F)(F)F)nc3ccccc23)CC1)c1cc(Cl)cs1 [4-251]	501 to 1000
CN(C)C(=O)Nc1cccc(C(=O)N[C@H]2CC[C@@H](Nc3cc(C(F)(F)F)nc4ccc(Cl)cc34)CC2)c1 [4-281]	100 to 500
CC1C(C(=O)N[C@H]2CC[C@@H](Nc3cc(C(F)(F)F)nc4ccc(Cl)cc34)CC2)CC2CC1C2(C)C (some centres unmarked) [4-200]	1000 to 2500
CCCc1nnsc1C(=O)N[C@H]1CC[C@@H](Nc2cc(C(F)(F)F)nc3ccc(Cl)cc23)CC1 [4-209]	1000 to 2500
O=C(N[C@H]1CC[C@@H](Nc2cc(C(F)(F)F)nc3ccc(Cl)cc23)CC1)C1CCN(C(=O)c2ccccc2Cl)CC1 [4-122]	> 2500
O=C1Nc2c(C(=O)N[C@H]3CC[C@@H](Nc4cc(C(F)(F)F)nc5ccc(Cl)cc45)CC3)cccc2C1=O [4-164]	100 to 500
CCNc1cccc(C(=O)N[C@H]2CC[C@@H](Nc3cc(C(F)(F)F)nc4ccc(Cl)cc34)CC2)c1 [4-282]	100 to 500
CC(=O)Nc1ccc(C(=O)N[C@H]2CC[C@@H](Nc3cc(C(F)(F)F)nc4ccc(Cl)cc34)CC2)cc1 [4-103]	< 100
O=C(N[C@H]1CC[C@@H](Nc2cc(C(F)(F)F)nc3ccccc23)CC1)c1ccc(Cl)s1 [4-241]	501 to 1000
CN(C)c1ccc(C(=O)N[C@H]2CC[C@@H](Nc3cc(C(F)(F)F)nc4ccc(Cl)cc34)CC2)cc1 [4-102]	100 to 500
O=C(N[C@H]1CC[C@@H](Nc2cc(C(F)F)nc3ccc(Cl)cc23)CC1)c1ccc(F)cc1 [1-3, 4-fluoro-N-[(1s,4s)-4-{[6-chloro-2-(difluoromethyl)quinolin-4-yl]amino}cyclohexyl]benzamide]	100 to 500
O=C(CCOc1cccc(F)c1)N[C@H]1CC[C@@H](Nc2cc(C(F)(F)F)nc3ccc(Cl)cc23)CC1 [4-134]	> 2500
O=C(N[C@H]1CC[C@@H](Nc2cc(C(F)(F)F)nc3ccccc23)CC1)c1cccc(F)c1 [3-42]	100 to 500
CNC(=O)Nc1cccc(C(=O)N[C@H]2CC[C@@H](Nc3cc(C(F)(F)F)nc4ccc(Cl)cc34)CC2)c1 [Example 5A]	< 100
CNc1cccc(C(=O)N[C@H]2CC[C@@H](Nc3cc(C(F)(F)F)nc4ccc(Cl)cc34)CC2)c1 [4-8]	100 to 500
O=C(N[C@H]1CC[C@@H](Nc2cc(C(F)(F)F)nc3ccc(Cl)cc23)CC1)c1csnn1 [4-107]	501 to 1000
O=C(N[C@H]1CC[C@@H](Nc2cc(C(F)(F)F)nc3ccccc23)CC1)[C@H]1C[C@@H]1c1ccccc1 [4-291]	1000 to 2500
O=C(N[C@H]1CC[C@@H](Nc2cc(C(F)(F)F)nc3ccc(Cl)cc23)CC1)c1cccn1-c1ccccc1 [4-162]	1000 to 2500
O=C(N[C@H]1CC[C@@H](Nc2cc(C(F)(F)F)nc3ccccc23)CC1)c1cccs1 [3-36]	501 to 1000
CCC(C(=O)N[C@H]1CC[C@@H](Nc2cc(C(F)(F)F)nc3ccccc23)CC1)c1ccccc1 (some centres unmarked) [3-24]	1000 to 2500
Cn1cc(I)c(C(=O)N[C@H]2CC[C@@H](Nc3cc(C(F)(F)F)nc4ccc(Cl)cc34)CC2)n1 [4-90]	501 to 1000
COc1ccc(C(=O)N[C@H]2CC[C@@H](Nc3cc(C(F)(F)F)nc4ccccc34)CC2)cc1F [3-27]	501 to 1000

Results, then the compound that gave them:

IC50 [nM]	SMILES
501 to 1000	N#Cc1csc(C(=O)N[C@H]2CC[C@@H](Nc3cc(C(F)(F)F)nc4ccccc34)CC2)c1 [4-243]
501 to 1000	O=C(N[C@H]1CC[C@@H](Nc2cc(C(F)(F)F)nc3ccc(Cl)cc23)CC1)c1ccc2nc(Cl)sc2c1 [4-57]
501 to 1000	O=C(N[C@H]1CC[C@@H](Nc2cc(C(F)(F)F)nc3ccccc23)CC1)c1ccccn1 [3-21]
501 to 1000	COc1ccc(C(=O)N[C@H]2CC[C@@H](Nc3cc(C(F)(F)F)nc4ccc(Cl)cc34)CC2)c(C)n1 [4-6]
100 to 500	O=C(N[C@H]1CC[C@@H](Nc2cc(C(F)(F)F)nc3ccccc23)CC1)c1coc2ccccc12 [4-272]
1000 to 2500	N#Cc1ccc(C(=O)N[C@H]2CC[C@@H](Nc3cc(C(F)(F)F)nc4ccccc34)CC2)s1 [4-242]
501 to 1000	O=C(N[C@H]1CC[C@@H](Nc2cc(C(F)(F)F)nc3ccc(Cl)cc23)CC1)c1n[nH]c2c1COCC2 [4-60]
100 to 500	CC(C)C(=O)Nc1cccc(C(=O)N[C@H]2CC[C@@H](Nc3cc(C(F)(F)F)nc4ccc(Cl)cc34)CC2)c1 [4-279]
100 to 500	CCCS(=O)(=O)Nc1ccc(F)c(C(=O)N[C@H]2CC[C@@H](Nc3cc(C(F)(F)F)nc4ccc(Cl)cc34)CC2)c1F [4-173]
100 to 500	O=C1CCc2ccc(C(=O)N[C@H]3CC[C@@H](Nc4cc(C(F)(F)F)nc5ccc(Cl)cc45)CC3)cc2N1 [4-283]
1000 to 2500	O=C(N[C@H]1CC[C@@H](Nc2cc(C(F)(F)F)nc3ccccc23)CC1)c1ccnc2ccccc12 [4-230]
100 to 500	CS(=O)(=O)c1ccc(C(=O)N[C@H]2CC[C@@H](Nc3cc(C(F)(F)F)nc4ccc(Cl)cc34)CC2)c(Cl)c1 [4-123]
100 to 500	O=C(N[C@H]1CC[C@@H](Nc2cc(C(F)(F)F)nc3ccc(Cl)cc23)CC1)c1ccc2oc(=O)ccc2c1 [4-145]
< 100	O=C(N[C@H]1CC[C@@H](Nc2cc(C(F)(F)F)nc3ccc(Cl)cc23)CC1)c1ccc2[nH]c(-c3ccncc3)nc2c1 [4-23]
1000 to 2500	Cc1cc(C(F)(F)F)nn1CC(=O)N[C@H]1CC[C@@H](Nc2cc(C(F)(F)F)nc3ccc(Cl)cc23)CC1 [4-141]
1000 to 2500	CC(C)Cc1cc(C(=O)N[C@H]2CC[C@@H](Nc3cc(C(F)(F)F)nc4ccc(Cl)cc34)CC2)n(C)n1 [4-129]
1000 to 2500	O=C(N[C@H]1CC[C@@H](Nc2cc(C(F)(F)F)nc3ccccc23)CC1)c1ccc2ncccc2n1 [4-265]
501 to 1000	COc1ccc(C(=O)N[C@H]2CC[C@@H](Nc3cc(C(F)(F)F)nc4ccccc34)CC2)cc1N(C)C [4-258]
100 to 500	O=C(N[C@H]1CC[C@@H](Nc2cc(C(F)(F)F)nc3ccccc23)CC1)c1ccccc1Cl [3-12]

test system: Human LAD2 cells; test: Mast Cell Beta-Hexosaminidase Release Assay (versus 500 nM Cortistatin-14); assay type: cell-based; settings: 500 nM Cortistatin-14 agonist, read-out: MRGPR2 Antagonist Activity
Experimental: Human LAD2 cells (NIH) were maintained in an incubator at 37° C. with 5% CO2 and cultured in StemPro-34 serum-free media (Gibco 10639011) supplemented with 2 mM L-glutamine, 100 U/ml penicillin, […] streptomycin and 100 ng/ml SCF (Invitrogen PEP0860), at a concentration of 2-5×10^5 cells/mL, with hemidepletion every 1-2 weeks.
Cells were transferred to SCF-Free medium at 2.5×10^5 cells/mL and kept in an incubator overnight. On the day of the assay, cells were washed twice in Assay Buffer (final concentrations 10 mM HEPES, 137 mM NaCl, 5.6 mM D-glucose, 2.7 mM KCl, 1 mM MgCl, 1.8 mM CaCl2, 0.4 mM Na2HPO4.7H2O, 0.04% BSA, pH=7.4) and plated in a 96-well v-bottom plate at 20,000 cells per well in 80 μL Assay Buffer. Antagonist compounds solubilized at 10 mM in DMSO were diluted in Assay Buffer to 10× final desired concentrations as a 10-point curve (10 μM final top concentration with 1:3 serial dilutions) and 10 μL added per well. Plates were then incubated for 1 hour at 37° C. Agonists were diluted in Assay Buffer to 10× desired concentrations and 10 μL of the appropriate agonist added to each well. The final concentration of Cortistatin-14 (Tocris 3374) used in antagonist assays was 500 nM. Final concentrations of DMSO were kept consistent across the plate. Plates were then incubated in a warm air oven for 30 minutes at 37° C., followed by centrifugation at 4° C. for 5 minutes at 450×g. 50 μL supernatant from each well was then transferred to a 96-well flat bottom plate containing 100 μL substrate solution per well (3.5 mg/mL p-Nitrophenyl-N-acetyl-β-D-glucosaminide (Sigma 487052) in Citrate Buffer containing a final concentration of 40 mM Citric Acid, 20 mM Na2HPO4.7H2O, pH=4.5). To the cell pellets left in the remaining assay buffer, 150 μL 0.1% Triton-X-100 was then added to each well, resuspended by pipetting up and down, and 50 μL cell lysates transferred to a second 96-well flat bottom plate containing 100 μL substrate solution per well. Plates containing transferred supernatant and cell lysates were then incubated in a warm air oven for 90 minutes at 37° C. After incubation, 50 μL of 400 mM Glycine buffer (pH 10.7) was added into each well and the plate was read on a Molecular Devices SpectraMax iD5 plate reader (absorbance at 405 nm with reference filter at 620 nm). After background subtraction, the percentage degranulation (percent beta-hexosaminidase release) was calculated as 100×(supernatant values)/(supernatant+lysate values), followed by analysis using GraphPad Prism software to calculate an IC50 value for each compound.
as §1

IC50 [nM]	SMILES
100 to 500	O=C(N[C@H]1CC[C@@H](Nc2cc(C(F)(F)F)nc3ccc(F)cc23)CC1)c1ccc(F)cc1 [1-4, 4-fluoro-N-[(1s,4s)-4-{[6-fluoro-2-(trifluoromethyl)quinolin-4-yl]amino}cyclohexyl]benzamide]
< 100	O=C(N[C@H]1CC[C@@H](Nc2cc(C(F)(F)F)nc3ccc(Cl)cc23)CC1)c1ccnc2[nH]ccc12 [4-139]
501 to 1000	O=C(N[C@H]1CC[C@@H](Nc2nc(C(F)(F)F)nc3ccccc23)CC1)c1ccc(F)cc1 [1-7, 4-fluoro-N-[(1s,4s)-4-{[2-(trifluoromethyl)quinazolin-4-yl]amino}cyclohexyl]benzamide]
